This is an account of results in US20230159484A1, “FLUORESCENT DYES HAVING HIGH STOKES SHIFT, ON THE BASIS OF BRIDGED BENZOPYRYLIUM SALTS” (DYOMICS GmbH, priority 2020, published 2023).

Where “and” joins values, the source holds several entries; their conditions need not be identical. Equal values may be shown once.

A short description of data set [1]: UV-Vis absorption (absorption maximum, extinction coefficient). Format: physicochemical. As for the experimental part:
(§1) Depending on the basic structure and substitution, the absorption maxima lie in the entire range of visible light, with a focus at 500-530 nm. The compounds show a high Stokes shift in the range of 80 nm. The absorption is measured, for example, at 25° C. in aqueous or ethanolic solutions with an extinction of 1.0 using a Specord 205 from Analytik Jena, wherein the aqueous solutions are preferably phosphate-buffered salt solutions (PBS buffer; approx. 100 mM sodium chloride and 100 mM total phosphate) and have a pH of 7.5. For example, the emission is measured at 25° C. in dilute aqueous or ethanolic solutions with an extinction of 0.1 using a FP-6600 spectrofluorometer from Jasco, wherein the dilute aqueous solutions are preferably phosphate-buffered salt solutions (PBS buffer; about 100 mM sodium chloride and 100 mM total phosphate) and have a pH of 7.5.

Data set [2] in a line: Fluorescence emission (emission maximum). It counts as physicochemical. As for the experimental part: as §1

With `CC1=CC(C)(C)N(CCCS(=O)(=O)[O-])c2cc3[o+]c4c(cc3cc21)C(C)(C)CC(NCCCCCC(=O)O)=C4` [Compound 22, 3-[9-(5-carboxypentylamino)-2,2,4,7,7-pentamethyl-8H-chromeno[3,2-g]quinolin-11-ium-1-yl]propane-1-sulfonate], the figures for the ε in data set [1] (UV-Vis in PBS) and in data set [1] (UV-Vis in ethanol) were 37500 L/mol/cm and 39,000 l/mol*cm, respectively. The λmax in data set [1] (UV-Vis in PBS) is listed as 516 nm; in data set [1] (UV-Vis in ethanol) it was 531 nm. The λem in data set [2] (in PBS) stood at 590 nm; in data set [2] (in ethanol), 589 nm.
Take `CCN(CC)c1ccc2cc3c([o+]c2c1)C=C(/C=C/C=C1/N(CCCCCC(=O)O)c2ccc(S(=O)(=O)[O-])cc2C1(C)C)CC3(C)C` [Compound 32, (2E)-1-(5-sarboxypentyl)-2-[(E)-3-[6-(diethylamino)-1,1-dimethyl-2H-xantheneium-3-yl]prop-2-enyliden]-3,3-dimethyl-indoline-5-sulfonate]: the ε was 75000 L/mol/cm in data set [1] (UV-Vis in PBS) and 143,600 l/mol*cm in data set [1] (UV-Vis in ethanol). Also, the λmax is listed as 755 nm in data set [1] (UV-Vis in PBS) and 770 nm in data set [1] (UV-Vis in ethanol). Also, the λem in data set [2] (in PBS) is 788 nm; in data set [2] (in ethanol), 795 nm.
For the compound `CCN(CCCCCC(=O)O)c1ccc2cc3c([o+]c2c1)C=C(Nc1cccc(N(C)C)c1)CC3(C)C.[Cl-]` [Compound 26, 6-[[6-[3-(dimethylamino)anilino]-8,8-dimethyl-7H-xanthene-10-ium-3-yl]-ethyl-amino]hexanoic Acid Chloride Salt], in data set [1] (UV-Vis in ethanol), the ε was 34,000 l/mol*cm and the λmax came out at 531 nm. Also, the λem in data set [2] (in ethanol) was found to be 573 nm.
With `CCN(CCCCCC(=O)O)c1ccc2cc3c([o+]c2c1)C=C(N(Cc1ccccn1)Cc1ccccn1)CC3(C)C.[Cl-]` [Compound 28, 6-[[6-[bis(2-pyridylmethyl)amino]-8,8-dimethyl-7H-xanthene-10-ium-3-yl]-ethyl-amino]hexanoic Acid Chloride Salt], in data set [1] (UV-Vis in ethanol), the ε was 28,000 l/mol*cm and the λmax was 531 nm. The compound also yielded a λem in data set [2] (in ethanol) of 593 nm.
For the compound `CCN(CC)c1ccc2c(c1)OC1=Cc3[o+]c4cc(N(CC)CC)ccc4c(-c4ccccc4C(=O)O)c3C(C)(C)C1=C2.[Cl-]` [Compound 46, 2-[3,9-bis(diethylamino)-13,13-dimethyl-chromeno[3,2-b]xanthene-5-ium-14-yl]benzoic Acid Chloride Salt], the ε was 42000 L/mol/cm in data set [1] (UV-Vis in PBS) and 60,000 l/mol*cm in data set [1] (UV-Vis in ethanol). Besides, the λmax in data set [1] (UV-Vis in PBS) was 663 nm; in data set [1] (UV-Vis in ethanol), 664 nm. Also, the λem in data set [2] (in PBS) is recorded as 711 nm; in data set [2] (in ethanol), 710 nm.
`CC1=CC(C)(C)N(CCCCCC(=O)O)c2cc3c(cc21)C=C1C(=CC(=O)CC1(C)C)O3` [Compound 41, 6-(2,2,4,7,7-pentamethyl-9-oxo-8H-chromeno[3,2-g]quinolin-1-yl)hexanoic Acid]: the figures for the ε in data set [1] (UV-Vis in PBS) and in data set [1] (UV-Vis in ethanol) were 23,000 l/mol*cm and 24,000 l/mol*cm, respectively. Also, the λmax in data set [1] (UV-Vis in PBS) was 460 nm; in data set [1] (UV-Vis in ethanol) it was 463 nm. Further, the λem in data set [2] (in PBS) was found to be 575 nm; in data set [2] (in ethanol) it was 557 nm.
`CCN(CC)c1ccc2c(c1)OC1=CC(=O)CC(C)(C)C1=C2` [Compound 34, 6-(diethylamino)-1,1-dimethyl-2H-xanthene-3-one]: the ε was 23000 L/mol/cm in data set [1] (UV-Vis in PBS) and 24,800 l/mol*cm in data set [1] (UV-Vis in ethanol). Besides, the λmax in data set [1] (UV-Vis in PBS) is listed as 450 nm; in data set [1] (UV-Vis in ethanol), 440 nm. In addition, the figures for the λem in data set [2] (in PBS) and in data set [2] (in ethanol) were 558 nm and 540 nm, respectively.
For `CCN(CCCCCC(=O)O)c1ccc2cc3c([o+]c2c1)C=C(c1ccc(N(C)C)cc1)CC3(C)C.[Cl-]` [Compound 30, 6-[[6-[4-(dimethylamino)phenyl]-8,8-dimethyl-7H-xanthene-10-ium-3-yl]-ethyl-amino]hexanoic Acid Chloride Salt], in data set [1] (UV-Vis in ethanol), the ε is 30,000 l/mol*cm and the λmax worked out at 664 nm. The λem in data set [2] (in ethanol) stood at 713 nm.
In the case of `CCN(CCCCCC(=O)O)c1ccc2c(c1)OC1=Cc3[o+]c4cc(OC)ccc4cc3C(C)(C)C1=C2.[Cl-]` [Compound 48, 6-[ethyl-(3-methoxy-13,13-dimethyl-chromeno[3,2-b]xanthene-5-ium-9-yl)amino]hexanoic Acid Chloride Salt], in data set [1] (UV-Vis in ethanol), the ε is given as 53,000 l/mol*cm and the λmax amounted to 654 nm. This compound displayed a λem in data set [2] (in ethanol) of 712 nm.
With `CCN(CCCCCC(=O)O)c1ccc2cc3c([o+]c2c1)C=C(Nc1ccc(N)cc1)CC3(C)C.[Cl-]` [Compound 27, 6-[[6-(4-aminoanilino)-8,8-dimethyl-7H-xanthene-10-ium-3-yl]-ethyl-amino]hexanoic Acid Chloride Salt], in data set [1] (UV-Vis in ethanol), the ε is on record as 35,000 l/mol*cm and the λmax was 530 nm. In addition, in data set [2] (in ethanol), the λem came out at 612 nm.
Consider `CC1(C)CC(=O)C(S(=O)(=O)[O-])=C2Oc3cc(OCCCCCC(=O)O)ccc3C=C21.[Na+]` [Compound 40, 6-(5-carboxypentoxy)-1,1-dimethyl-3-oxo-2H-xanthene-4-sulfonate Sodium Salt], for which the ε in data set [1] (UV-Vis in PBS) was 21,000 l/mol*cm; in data set [1] (UV-Vis in ethanol), 19,500 l/mol*cm. Further, the λmax in data set [1] (UV-Vis in PBS) stood at 407 nm; in data set [1] (UV-Vis in ethanol), 403 nm. Further, the results for the λem in data set [2] (in PBS) and in data set [2] (in ethanol) were 483 nm and 487 nm, respectively.
For `CN(C1=Cc2[o+]c3cc(OCCCCCC(=O)O)ccc3cc2C(C)(C)C1)c1ccccc1.[Cl-]` [Compound 18, 6-[[8,8-dimethyl-6-(N-methylanilino)-7H-xanthene-10-ium-3-yl]oxy]hexanoic Acid Chloride Salt], in data set [1] (UV-Vis in ethanol), the λmax was 452 nm and 469 nm. Moreover, in data set [2] (in ethanol), the λem is 520 nm.
Turning to `CCN(CCCCCC(=O)O)c1ccc2cc3c([o+]c2c1)C=C(Nc1ccc2cc(S(=O)(=O)[O-])ccc2c1)CC3(C)C` [Compound 15, 6-[[6-[5-carboxypentyl(ethyl)amino]-1,1-dimethyl-2H-xanthene-10-ium-3-yl]amino]naphthalene-2-sulfonate], in data set [1] (UV-Vis in ethanol), the ε was 32,000 l/mol*cm and the λmax stood at 546 nm. Moreover, the λem in data set [2] (in ethanol) is reported as 619 nm.
Take `CCN(CC)c1ccc2cc3c([o+]c2c1)C=C1Oc2cc(N(CC)CCCCCC(=O)O)ccc2C=C1C3(C)C.[Cl-]` [Compound 47, 6-[[9-(diethylamino)-13,13-dimethyl-chromeno[3,2-b]xanthene-7-ium-3-yl]-ethyl-amino]hexanoic Acid Chloride Salt]: the values for the ε in data set [1] (UV-Vis in PBS) and in data set [1] (UV-Vis in ethanol) were 37000 L/mol/cm and 80,300 l/mol*cm, respectively. The λmax is reported as 670 nm in data set [1] (UV-Vis in PBS) and 679 nm in data set [1] (UV-Vis in ethanol). Further, the λem stood at 710 nm in data set [2] (in PBS) and 713 nm in data set [2] (in ethanol).
As to `CC1=CC(C)(C)N(CCCCCC(=O)O)c2cc3c(cc21)C=C1C(=C(S(=O)(=O)[O-])C(=O)CC1(C)C)O3.[Na+]` [Compound 42, 1-(5-carboxypentyl)-2,2,4,7,7-pentamethyl-9-oxo-8H-chromeno[3,2-g]quinoline-10-sulfonate Sodium Salt], the figures for the ε in data set [1] (UV-Vis in PBS) and in data set [1] (UV-Vis in ethanol) were 28,000 l/mol*cm and 30,000 l/mol*cm, respectively. The λmax in data set [1] (UV-Vis in PBS) turned out to be 487 nm; in data set [1] (UV-Vis in ethanol), 473 nm. Besides, the λem in data set [2] (in PBS) came to 578 nm; in data set [2] (in ethanol), 559 nm.
Turning to `CC1(C)CC(NCCCS(=O)(=O)[O-])=Cc2[o+]c3cc(N(CCCCCC(=O)ON4C(=O)CCC4=O)CCCS(=O)(=O)[O-])ccc3cc21.[Na+]` [Compound 6, 3-[[6-[[6-(2,5-dioxopyrrolidine-1-yl)oxy-6-oxo-hexyl]-(3-sulfonatopropyl)amino]-1,1-dimethyl-2H-xanthene-10-ium-3-yl]amino]propane-1-sulfonate Sodium Salt], in data set [1] (UV-Vis in ethanol), the ε is given as 44,000 l/mol*cm and the λmax worked out at 512 nm. Moreover, the λem in data set [2] (in ethanol) came out at 570 nm.
For the compound `CCN(CC)c1ccc2cc3c([o+]c2c1)C=C(C)CC3(C)C.[Cl-]` [Compound 31], in data set [1] (UV-Vis in ethanol), the ε is on record as 9,800 l/mol*cm and the λmax is reported as 538 nm. The same compound came in with a λem in data set [2] (in ethanol) of 628 nm.
In the case of `CCOC1=Cc2[o+]c3cc(N(CC)CC)ccc3cc2C(C)(C)C1.F[B-](F)(F)F` [Compound 2, 6-ethoxy-N,N-diethyl-8,8-dimethyl-7H-xanthene-10-ium-3-amine tetrafluoroborate], in data set [1] (UV-Vis in ethanol), the λmax is 531 nm. For the same compound, the λem in data set [2] (in ethanol) is 605 nm.
With `CN(C1=Cc2[o+]c3cc(OCCCCCC(=O)O)c(S(=O)(=O)[O-])cc3cc2C(C)(C)C1)c1ccc(S(=O)(=O)[O-])cc1.[Na+]` [Compound 19, 3-(5-carboxypentoxy)-8,8-dimethyl-6-(N-methyl-4-sulfonato-anilino)-7H-xanthene-10-ium-2-sulfonate Sodium Salt], the ε is 16500 L/mol/cm in data set [1] (UV-Vis in PBS) and 18,000 l/mol*cm in data set [1] (UV-Vis in ethanol). Moreover, the λmax in data set [1] (UV-Vis in PBS) is 460 nm; in data set [1] (UV-Vis in ethanol), 465 nm. Also, the λem in data set [2] (in PBS) stood at 509 nm; in data set [2] (in ethanol) it was 522 nm.
`CCN(CCCCCC(=O)O)c1ccc2c(c1)OC1=CC(=O)CC(C)(C)C1=C2` [Compound 35, 6-[(8,8-dimethyl-6-oxo-7H-xanthene-3-yl)-ethyl-amino]hexanoic Acid]: the ε is listed as 24,200 l/mol*cm in data set [1] (UV-Vis in PBS) and 25,300 l/mol*cm in data set [1] (UV-Vis in ethanol). Besides, the λmax is 457 nm in data set [1] (UV-Vis in PBS) and 441 nm in data set [1] (UV-Vis in ethanol). In addition, the λem in data set [2] (in PBS) worked out at 559 nm; in data set [2] (in ethanol), 540 nm.
